Source: patent US20200079765A1, “SUBSTITUTED HETEROARYL PYRROLONES AND SALTS THEREOF AND USE THEREOF AS HERBICIDAL ACTIVE SUBSTANCES” (Bayer CropScience Aktiengesellschaft, priority 2016, published 2020)

Tests used:
photosystem II (PS II) = target: T1, photosystem II (PS II) (Spinacia oleracea, UniProt P69560); test: Measurement of the PS II activity in thylakoid membranes (DCPIP reduction, Experimental Part 3, Table E1); format: biochemical; conditions: spinach thylakoid membranes
T1 construct: the chloroplasts were osmotically ruptured and the thylakoid membranes were then obtained by centrifugation; from tissue; host or cells: thylakoid membranes from fresh spinach leaves
Method: Cooled fresh spinach leaves were comminuted and homogenized in 50 mM phosphate buffer, pH 6.8. 10 mM KCl, 0.34 M sucrose (sucrose buffer) (blender, 1 g of plant material/ml). The homogenate was subsequently filtered through 4 layers of Miracloth and the chloroplasts were isolated by centrifugation, i.e. 10 min of centrifugation at 4400×g (4° C.). The sediment was suspended in 25 ml of sucrose buffer and re-centrifuged for 10 min at 4400×g (4° C.). The sediment was then suspended in 40 ml of 50 mM phosphate buffer, pH 6.8, 10 mM KCl, without sucrose. In this step, the chloroplasts were osmotically ruptured and the thylakoid membranes were then obtained by centrifugation (10 min, 4400×g, 4° C.). The membrane sediment was finally suspended in about 20 ml of 50 mM phosphate buffer, pH 6.8, 10 mM KCl. Following protein determination and activity determination, the membrane suspension was divided into aliquots and frozen in liquid nitrogen. The aliquots were stored at −80° C. Under these conditions, the photosystem II preparation was storage stable for at least three months. The activity determination of photosystem II (PS II) was then carried out using the following test principle: The electron transfer from PS II to an artificial electron acceptor, 2,6-dichlorophenolindophenol (DCPIP), was measured with exposure to light. The concentration of the blue oxidized form of DCPIP was determined spectrophotometrically at wavelength λ=595 nm. […] The activity determination was carried out in microtiter plates (96 cavities) in a reaction volume of 200 μl. Here, 155 μl of dilute membrane suspension were initially charged in 50 mM of phosphate buffer, pH 6.8, 10 mM KCl. Depending on the activity of the PS II preparation, the dilution was adjusted such that the measurement of the decrease in absorption (λ=595 nm) was linear for at least 10 min. In each case 5 μl solution of the test compounds of a concentration of 100 μM in DMSO were added to the enzyme suspension; controls contained 5 μl DMSO; the final concentration of DMSO in the reaction batch was thus 2.5% (v/v); this concentration had no adverse effect on the enzymatic activity. On each microtiter plate, a known PS II inhibitor, for example metribuzin, was used as standard, which allowed the quality of the PS II test to be assessed. The reaction was started by addition of 40 μl DCPIP solution (600 μM in distilled water); the final concentration of DCPIP was 120 μM. Measurement of absorption was carried out over a period of 10 min at 22° C. and with exposure to light. Using metribuzin as comparative substance, the results for the efficacy of the compounds of the general formula (I) at 100 μM are stated in the table below using the following classification: ++++ (inhibition≥90%), +++ (90%>inhibition≥70%), ++ (70%>inhibition≥50%), + (50%>inhibition≥30%).
Effects of selected compounds of the general formula (I) according to the following table E1: […]

Stellaria media [1] = test: Herbicidal post-emergence action (Experimental Part 2, C); format: in vivo; conditions: post-emergence (Part 2), rated visually after about 3 weeks
Method: (§1) Seeds of mono- and dicotyledonous weed plants were placed in plastic pots in sandy loam soil (doubly sown with in each case one species of mono- or dicotyledonous weed plants per pot), covered with soil and cultivated in a greenhouse under controlled growth conditions. 2 to 3 weeks after sowing, the test plants were treated at the one-leaf stage. The compounds of the invention, formulated in the form of wettable powders (WP) or as emulsion concentrates (EC), were applied onto the green parts of the plants as aqueous suspension or emulsion with addition of 0.5% additive at a water application rate of 600 liters per hectare (converted). After the test plants had been kept in the greenhouse under optimum growth conditions for about 3 weeks, the activity of the preparations was rated visually in comparison to untreated controls. For example, 100% activity=the plants have died, 0% activity=like control plants. Tables C1 to C8 below show the effects of selected compounds of the general formula (I) according to Tables I.1 to I.116 on various harmful plants and an application rate corresponding to 1280 g/ha or 320 g/ha, which were obtained by the experimental procedure mentioned above.

Poa annua [2] = test: as above; format: in vivo; conditions: post-emergence (Part 2), rated visually after about 3 weeks
Method: as §1

Abutilon theophrasti [3] = test: as above; format: in vivo; conditions: post-emergence (Part 2), rated visually after about 3 weeks
Method: as §1

Matricaria inodora [4] = test: as above; format: in vivo; conditions: post-emergence (Part 2), rated visually after about 3 weeks
Method: as §1

Setaria viridis [5] = test: as above; format: in vivo; conditions: post-emergence (Part 2), rated visually after about 3 weeks
Method: as §1

Amaranthus retroflexus [6] = test: as above; format: in vivo; conditions: post-emergence (Part 2), rated visually after about 3 weeks
Method: as §1

Echinochloa crus-galli [7] = test: as above; format: in vivo; conditions: post-emergence (Part 2), application rate 1280 g/ha, rated visually after about 3 weeks
Method: as §1

Stellaria media [8] = test: Herbicidal pre-emergence action (Experimental Part 2, D); format: in vivo; conditions: pre-emergence (Part 2), scored visually after about 3 weeks
Text: (§2) Seeds of mono- and dicotyledonous weed plants were placed in plastic pots in sandy loam soil (doubly sown with in each case one species of mono- or dicotyledonous weed plants per pot) and covered with soil. The compounds of the invention, formulated in the form of wettable powders (WP) or as emulsion concentrates (EC), were then applied onto the surface of the covering soil as aqueous suspension or emulsion with addition of 0.5% additive at a water application rate of 600 liters per hectare (converted). After the treatment, the pots are placed in a greenhouse and kept under good growth conditions for the trial plants. After about 3 weeks, the effect of the preparations was scored visually in comparison with untreated controls as percentages. For example, 100% activity=the plants have died, 0% activity=like control plants. Tables D1 to D8 below show the effects of selected compounds of the general formula (I) according to Tables I.1 to I.116 on various harmful plants and an application rate corresponding to 1280 g/ha or 320 g/ha, which were obtained by the experimental procedure mentioned above.

Poa annua [9] = test: as above; format: in vivo; conditions: pre-emergence (Part 2), scored visually after about 3 weeks
Text: as §2

Abutilon theophrasti [10] = test: as above; format: in vivo; conditions: pre-emergence (Part 2), application rate 320 g/ha, scored visually after about 3 weeks
Text: as §2

Lolium rigidum = test: as above; format: in vivo; conditions: pre-emergence (Part 2), scored visually after about 3 weeks
Text: as §2

Matricaria inodora [11] = test: as above; format: in vivo; conditions: pre-emergence (Part 2), scored visually after about 3 weeks
Text: as §2

Setaria viridis [12] = test: as above; format: in vivo; conditions: pre-emergence (Part 2), scored visually after about 3 weeks
Text: as §2

Amaranthus retroflexus [13] = test: as above; format: in vivo; conditions: pre-emergence (Part 2), application rate 1280 g/ha, scored visually after about 3 weeks
Text: as §2

Echinochloa crus-galli [14] = test: as above; format: in vivo; conditions: pre-emergence (Part 2), scored visually after about 3 weeks
Text: as §2

Structure (SMILES) | Effect (inhibition of PS II activity) (photosystem II (PS II)) | Stellaria media, herbicidal activity (Stellaria media [1]; application rate 320 g/ha) [%] | Poa Annua, herbicidal activity (Poa annua [2]; application rate 1280 g/ha) [%] | Matricaria inodora, herbicidal activity (Matricaria inodora [4]; application rate 320 g/ha) [%] | Setaria viridis, herbicidal activity (Setaria viridis [5]; application rate 1280 g/ha) [%] | Amaranthus retroflexus, herbicidal activity (Amaranthus retroflexus [6]; application rate 1280 g/ha) [%] | Echinochloa crus-galli, herbicidal activity (Echinochloa crus-galli [7]) [%] | Stellaria media, herbicidal activity (Stellaria media [8]; application rate 1280 g/ha) [%] | Poa Annua, herbicidal activity (Poa annua [9]; application rate 1280 g/ha) [%] | Abutilon theophrasti, herbicidal activity (Abutilon theophrasti [10]) [%] | Matricaria inodora, herbicidal activity (Matricaria inodora [11]; application rate 1280 g/ha) [%] | Setaria viridis, herbicidal activity (Setaria viridis [12]; application rate 320 g/ha) [%] | Amaranthus retroflexus, herbicidal activity (Amaranthus retroflexus [13]) [%] | Poa Annua, herbicidal activity (Poa annua [2]; application rate 320 g/ha) [%] | Abutilon theophrasti, herbicidal activity (Abutilon theophrasti [3]; application rate 320 g/ha) [%] | Stellaria media, herbicidal activity (Stellaria media [8]; application rate 320 g/ha) [%] | Poa Annua, herbicidal activity (Poa annua [9]; application rate 320 g/ha) [%] | Lolium rigidum, herbicidal activity (Lolium rigidum; application rate 1280 g/ha) [%] | Setaria viridis, herbicidal activity (Setaria viridis [12]; application rate 1280 g/ha) [%] | further results
CC1=CC(=O)N(c2noc(C(C)(C)C)c2C)C1O (stereo not drawn) [I.1-177] | ++++ (inhibition≥90%) | 100 | 100 | 100 | 100 | 100 | 100 | 100 | 100 | 100 | 100 | 100 | 90 | – | – | – | – | – | – | Abutilon theophrasti, herbicidal activity (Abutilon theophrasti [3]; application rate 1280 g/ha): 100%; Lolium rigidum, herbicidal activity (Lolium rigidum; application rate 320 g/ha): 90%; Echinochloa crus-galli, herbicidal activity (Echinochloa crus-galli [14]; application rate 1280 g/ha): 100%
CC1=CC(=O)N(c2onc(C(C)(C)C)c2C)C1O (stereo not drawn) [I.1-300] | +++ (90%>inhibition≥70%) | 100 | – | 100 | – | – | 100 | – | – | 100 | – | – | 90 | 100 | 100 | 100 | 90 | 90 | 100 | Setaria viridis, herbicidal activity (Setaria viridis [5]; application rate 320 g/ha): 100%; Amaranthus retroflexus, herbicidal activity (Amaranthus retroflexus [6]; application rate 320 g/ha): 100%; Matricaria inodora, herbicidal activity (Matricaria inodora [11]; application rate 320 g/ha): 100%; Echinochloa crus-galli, herbicidal activity (Echinochloa crus-galli [14]; application rate 320 g/ha): 100%
CC1=CC(=O)N(c2cc(C(F)(F)F)c(Cl)cn2)C1O (stereo not drawn) [I.1-451, 5-Hydroxy-4-methyl-1-(5-chloro-4-trifluoromethylpyridin-2-yl)-1,5-dihydro-2H-pyrrol-2-one] | ++++ (inhibition≥90%) | 100 | – | 90 | – | 100 | 100 | – | 90 | – | 100 | – | 90 | 100 | 100 | 100 | – | – | 100 | –
CCC(=O)OC1C(C)=CC(=O)N1c1cc(C(F)(F)F)c(Cl)cn1 (stereo not drawn) [I.5-451, 5-Ethylcarbonyloxy-4-methyl-1-(5-chloro-4-trifluoromethylpyridin-2-yl)-1,5-dihydro-2H-pyrrol-2-one] | – | – | 100 | – | 90 | – | – | 100 | – | – | 90 | 100 | – | – | 100 | – | 100 | 90 | – | Stellaria media, herbicidal activity (Stellaria media [1]; application rate 1280 g/ha): 100%; Matricaria inodora, herbicidal activity (Matricaria inodora [4]; application rate 1280 g/ha): 90%
